Measured values: patent US20040073074A1, “Method of continuous production of polyalkylbiphenyls” (priority 2002, published 2004)

Experiment: Confirmation of precipitation of 4,4′-diisopropylbiphenyl crystals on cooling
Assay type: physicochemical
Settings: cooled to −10° C.
Experimental: (Confirmation of Precipitation of 4,4′-diisopropylbiphenyl Crystals)
Solutions each containing 4,4′-diisopropylbiphenyl in ratios of 15% by mass and 30% by mass in diisopropylbiphenyl were respectively prepared in an amount of 50 g. Each solution was cooled to −10° C. […] Therefore, as mentioned above, in the case where the content of diisopropylbiphenyl contained in the solution recovery from the tower top of the distillation tower is 7.6% by mass and this amount is 27.6% by mass of the amount of diisopropylbiphenyl measured at the outlet of the reactor, with the result that the amount of 4,4′-diisopropylbiphenyl in diisopropylbiphenyl as a product is 14.1% by mass, there is no particular problem as to the low-temperature characteristics of the product. However, if the amount of diisopropylbiphenyl contained in the solution recovery from the tower top of the distillation tower becomes increase and the amount of 4,4′-diisopropylbiphenyl in diisopropylbiphenyl as a product becomes increase, the low-temperature characteristics will deteriorate.

Question: For `CC(C)c1ccc(-c2ccc(C(C)C)cc2)cc1` [4,4′-diisopropylbiphenyl], which precipitation of crystals (15% by mass in diisopropylbiphenyl) is on record?
Answer: The precipitation of crystals was “no precipitation of crystals was observed”.

Question: What about the precipitation of crystals (30% by mass in diisopropylbiphenyl) of the same compound?
Answer: Its precipitation of crystals is “a large amount of 4,4′-diisopropylbiphenyl precipitated”.
